Data taken from US20220249463A1, “METHODS OF ALTERING CARDIAC REMODELING USING COMPOUNDS THAT PROMOTE GLUCOSE OXIDATION” (IMBRIA PHARMACEUTICALS, INC., priority 2019, published 2022).

Tests used:
[1] = tested on: TAC mice; assay: TAC mice, six weeks treatment: heart weight and heart weight/body weight; type: in vivo; details: 6 weeks
[2] = tested on: TAC mice; assay: TAC mice: cardiac fibrosis, Masson's trichrome; type: in vivo; details: end of 6-week experiment
[3] = tested on: TAC mice; assay: TAC mice: echocardiography; type: in vivo
[4] = Stability of CV-8972 forms in solvents, X-ray powder diffraction; type: physicochemical
Experimental: Samples from batch 289-MBA-15-A (containing form B) were added to various solvents, incubated under various conditions, and analyzed by X-ray powder diffraction.
Samples from batch 289-MBA-16 (containing forms A and B) were added to various solvents, incubated under various conditions, and analyzed by X-ray powder diffraction.
Samples from batch S-18-0030513 (containing form A) were added to various solvents, incubated under various conditions, and analyzed by X-ray powder diffraction.

[5] = tested on: TAC mice; assay: TAC mice: left ventricular pressure with Mikro-tip catheter; type: in vivo; details: end of 6-week treatment
[6] = TMZ 6, NA 2.4, CV-8814 7.5, CV-8972 10 mg/kg/day

Structure (SMILES): COc1ccc(CN2CCN(CCOC(=O)c3cccnc3)CC2)c(OC)c1OC [CV-8972, 2-(4-(2,3,4-trimethoxybenzyl)piperazin-1-yl)ethyl nicotinate]
- cardiac remodeling in TAC mice (in words) [1, 6]: effectively inhibited cardiac remodeling
- cardiac mass ([1]; TAC mice, TMZ 6, CV-8814 7.5, CV-8972 10 mg/kg/day, osmotic minipump): 225 ± 11 mg
- heart weight to body weight ratio ([1]; TAC mice, TMZ 6, NA 2.4, CV-8814 7.5, CV-8972 10 mg/kg/day, subcutaneous osmotic minipump): 7.4 ± 0.3 mg/g
- cardiac fibrosis (fibrotic area to whole heart tissue area) [2]: 6.6±0.6%
- EF (in words) ([3]; 3-weeks after TAC): significantly increased
- IVRT ([3]; 3-weeks after TAC): 32 ± 1 ms
- IVSd ([3]; 3-weeks after TAC): 1.29±0.04 mm
- LV mass ([3]; 3-weeks after TAC): 154 ± 8 mg
- left ventricular FS ([3]; 3-weeks after TAC, CV-8814 7.5, CV-8972 10 mg/kg/day): 47%±3%
- IVRT ([3]; 6-weeks after TAC): 31 ± 2 ms
- IVSd ([3]; 6-weeks after TAC): 1.26±0.04 mm
- LV mass ([3]; 6-weeks after TAC): 156 ± 10 mg
- left ventricular FS ([3]; 6-weeks after TAC (end of the experiment)): 46%±3%
- cardiac functions in TAC mice (in words) ([3]; conclusion, 6 weeks treatment): improved cardiac functions
- EF (in words) ([3]; to the end of the study (6 weeks)): protective effect was sustained to the end of the study
- XRPD results ([4]; batch 289-MBA-15-A (containing form B), ACN/H2O (90:10) Aw = 0.83, Slurry, RT, 5 d): Form A
- XRPD results ([4]; batch 289-MBA-15-A (containing form B), Acetone/H2O (90:10) Aw = 0.72, Slurry, RT, 5 d): Form A
- XRPD results ([4]; batch 289-MBA-15-A (containing form B), EtOAc/H2O (97:3) Aw = 0.94, Slurry, RT, 5 d): Form A
- XRPD results ([4]; batch 289-MBA-15-A (containing form B), EtOAc, Slurry, RT, 5 d): Form A + Form B
- XRPD results ([4]; batch 289-MBA-15-A (containing form B), EtOH/H2O (90:10) Aw = 0.52, Slurry, RT, 5 d): Form A
- XRPD results ([4]; batch 289-MBA-15-A (containing form B), EtOH, CC from 60° C.): Form C + minor Form A
- XRPD results ([4]; batch 289-MBA-15-A (containing form B), EtOH, Slurry, RT, 3 d): Form A + Form B
- XRPD results ([4]; batch 289-MBA-15-A (containing form B), IPA/H2O (90:10) Aw = 0.67, Slurry, RT, 5 d): Form A
- XRPD results ([4]; batch 289-MBA-15-A (containing form B), IPA/H2O (98:2) Aw = 0.26, Slurry, RT, 5 d): Form A
- XRPD results ([4]; batch 289-MBA-15-A (containing form B), MEK, Slurry, RT, 5 d): Form A
- XRPD results ([4]; batch 289-MBA-15-A (containing form B), MeOH/H2O (80:20) Aw = 0.48, Slurry, RT, 5 d): Form A
- XRPD results ([4]; batch 289-MBA-15-A (containing form B), MeOH/H2O (95:5) Aw = 0.16, Slurry, RT, 5 d): Form A
- XRPD results ([4]; batch 289-MBA-15-A (containing form B), MeOH, Slurry, RT, 5 d): Form A + Form B
- XRPD results ([4]; batch 289-MBA-15-A (containing form B), no solvent, 100° C., 20 minutes, result wraps over r24-r26: Form B, shifted with minor Form A): Form B,
- XRPD results ([4]; batch 289-MBA-16 (containing forms A and B), EtOAc, Attempted to dissolve at ~60° C., solids remained, cooled slowly to RT, let stir at RT from 60° C. (Table 60)): Form A + Form B
- XRPD results ([4]; batch 289-MBA-16 (containing forms A and B), EtOAc, SC from 60° C. (Table 63)): Form A + Form B
- XRPD results ([4]; batch 289-MBA-16 (containing forms A and B), EtOH, SC from 60° C.): Form A + Form C
- XRPD results ([4]; batch 289-MBA-16 (containing forms A and B), EtOH, Slurry, RT, 3 d (Table 60)): Form A + Form B
- XRPD results ([4]; batch 289-MBA-16 (containing forms A and B), EtOH, Slurry, RT, 3 d (Table 63)): Form A + Form B
- XRPD results ([4]; batch 289-MBA-16 (containing forms A and B), MeOH/H2O (95:5), Slurry, overnight, 1 g scale): Form A
- XRPD results ([4]; batch 289-MBA-16 (containing forms A and B), MeOH, VD w/ MTBE (Table 63)): Form A
- XRPD results ([4]; batch 289-MBA-16 (containing forms A and B), MeOH, Vapor diffusion w/ MTBE (Table 60)): Form A
- XRPD results ([4]; batch 289-MBA-16 (containing forms A and B), THF, SC from 60° C.): Form B
- XRPD results ([4]; batch S-18-0030513 (containing form A), CHCl3, Slurry, RT): Form A
- XRPD results ([4]; batch S-18-0030513 (containing form A), EtOAc, Slurry, RT): Form A
- XRPD results ([4]; batch S-18-0030513 (containing form A), EtOH, Crash cool from 70° C.): Form A + Form C
- XRPD results ([4]; batch S-18-0030513 (containing form A), MEK/H2O 99:1, Slow cool from 70° C.): Form A
- XRPD results ([4]; batch S-18-0030513 (containing form A), THF, Slurry, RT): Form A
- XRPD results ([4]; batch S-18-0030513 (containing form A), no solvent, 80° C., 20 minutes): Form A with slight peak shifting
- XRPD results ([4]; batch S-18-0030513 (containing form A), no solvent, 97% RH Stress of Form A dried at 80° C. for 20 min): Form A
- XRPD results ([4]; batch S-18-0030513 (containing form A), no solvent, 100° C., 20 minutes): Form B + Form A, shifted
- XRPD results ([4]; batch S-18-0030513 (containing form A), no solvent, VO, RT): Form A
- +dp/dtm [5]: 4541±395 mm Hg/sec
- -dp/dtm [5]: −4126±339 mm Hg/sec
- left ventricular developed pressure (LVDP) [5, 6]: 116±9 mm Hg
